This note sets out measurements from ChEMBL document CHEMBL1150079, “Oxygenated Clerosterols Isolated from the Marine Alga Codium arabicum” (1995).

Common to all, as to type: functional
Test [1] relates to A549. Briefly: Cytotoxicity against human A549 cells after 6 days by MTT assay. To be noted: A549, 144 h, read-out: ED50 (the source's name). (Tetrazolium assays rely on reduction of a dye to a coloured formazan, in cell work by metabolically active cells.)
For test [2], the system named is HT-29. Description: Cytotoxicity against human HT-29 cells after 6 days by MTT assay. The conditions noted are these: HT-29, 144 h, read-out: ED50 (the source's name).
Test [3] deals with P388. Briefly: Cytotoxicity against mouse P388 cells after 3 days by MTT assay. The conditions noted are these: P388, 72 h, read-out: ED50 (the source's name).
Test [4] relates to KB. Description: Cytotoxicity against human KB cells after 3 days by MTT assay. The conditions noted are these: 72 h, read-out: ED50 (the source's name).

In brackets after ≈: the same amount, converted by molar mass. Bounds are passed on as bounds.

Regarding `C=C(C)[C@@H](CC)CC[C@@H](C)[C@H]1CC[C@H]2[C@@H]3C[C@@H](O)C4=CC(=O)CC[C@]4(C)[C@H]3CC[C@]12C`, the EC50 was 2.1 µg/mL (≈ 4.92 µM) in test [1], 0.3 µg/mL (≈ 0.703 µM) in test [2], 0.7 µg/mL (≈ 1.64 µM) in test [3] and 1.3 µg/mL (≈ 3.05 µM) in test [4].

`C=C(C)[C@@H](CC)CC[C@@H](C)[C@H]1CC[C@H]2[C@@H]3[C@H](O)C=C4C[C@@H](O)CC[C@]4(C)[C@H]3CC[C@]12C`: the EC50 worked out at 0.5 µg/mL (≈ 1.17 µM) in test [1], 0.6 µg/mL (≈ 1.4 µM) in test [2], 0.2 µg/mL (≈ 0.467 µM) in test [3] and 1.1 µg/mL (≈ 2.57 µM) in test [4].

For the compound `C=C(C)[C@@H](CC)CC[C@@H](C)[C@H]1CC[C@H]2[C@@H]3CC=C4C[C@@H](O)CC[C@]4(C)[C@H]3CC[C@]12C` [CLEROSTEROL], the EC50 is 0.3 µg/mL (≈ 0.727 µM) in test [1], 43.1 µg/mL (≈ 104 µM) in test [2], 1.7 µg/mL (≈ 4.12 µM) in test [3] and greater than 50 µg/mL in test [4].

For the compound `C=C(C)[C@@H](CC)CC[C@@H](C)[C@H]1CC[C@H]2[C@@H]3[C@H](OO)C=C4C[C@@H](O)CC[C@]4(C)[C@H]3CC[C@]12C`, the EC50 was determined as 0.5 µg/mL (≈ 1.12 µM) in test [1], 1 µg/mL (≈ 2.25 µM) in test [2], 0.4 µg/mL (≈ 0.899 µM) in test [3] and 1 µg/mL (≈ 2.25 µM) in test [4].

As for `C=C(C)[C@@H](CC)CC[C@@H](C)[C@H]1CC[C@H]2[C@@H]3C=C[C@@]4(OO)C[C@@H](O)CC[C@]4(C)[C@H]3CC[C@]12C`, the EC50 in test [1] is 1.1 µg/mL (≈ 2.47 µM); in test [2] it was 0.9 µg/mL (≈ 2.02 µM); in test [3] it was 0.5 µg/mL (≈ 1.12 µM); in test [4], 1 µg/mL (≈ 2.25 µM).

As to `C=C(C)[C@@H](CC)CC[C@@H](C)[C@H]1CC[C@H]2[C@@H]3C(=O)C=C4C[C@@H](O)CC[C@]4(C)[C@H]3CC[C@]12C`, the EC50 in test [1] was 1.2 µg/mL (≈ 2.81 µM); in test [2], 2 µg/mL (≈ 4.69 µM); in test [3] it was 0.8 µg/mL (≈ 1.87 µM); in test [4], 1 µg/mL (≈ 2.34 µM).
